Source: patent US6747050B1, “Isoxazoline derivative and a process for the preparation thereof” (LG Chem Investment Ltd., priority 1999, dated 2004)

Columns and labels:
[1] = system: W138 cells (human embryonal lung fibroblast); assay: Protection from IFNγ and anti-Fas antibody-induced apoptosis (XTT); type: cell-based; details: IFNγ 200 units/ml + anti-Fas antibody 40 ng/well; for cell viability (control without Fas antibody = 100%): 50 μM, 50 µM; for viability at 0.4 µM / viability at 2 µM / viability at 10 µM / viability at 50 µM: Homo sapiens, read-out: cell viability (control without Fas antibody = 100%); for viability at 0.4 µM: W138, 0.4 μM; for viability at 2 µM: W138, 2 μM; for viability at 10 µM: W138, 10 μM; for viability at 50 µM: W138, 50 μM
Experimental: W138 cells (human embryonal lung fibroblast) were grown in a medium containing DMEM-10% FBS within, 10 cm diameter dishes until reaching at confluency. The cells were seeded into a 24-well plate at day 1 and incubated overnight while the volume of medium was maintained to 400 μl. Cells were treated with 200 units/ml of IFNγ at day 2 and incubated over 12 hrs or more. At day 3, each 100 μl of test compound was added to the cells after diluting the 10 mM stock compound in DMSO to final concentrations of 50, 10, 2, and 0.4 μM, respectively. The cells were incubated for 2 hrs in order for allowing the compound to enter into the cells and then treated with 40 ng/well of anti-Fas antibody(apoptosis was induced 2 hrs after antibody was treated and the incubation was continued overnight). The control was not treated with Fas antibody. […] After coloring, 100-200 μl of the supernatant was transferred to a 96-well plate and the absorbance at 490 nm was read with ELISA plate reader. For the blank, XTT solution was added to the well continued the medium only. Plotting was determined by comparing with the control group (100% when Fas antibody was not treated).

[2] = target: T1, caspase-1 (Homo sapiens, UniProt P29466); assay: Recombinant caspase enzyme inhibition, fluorogenic substrate Ac-YVAD-AMC; type: biochemical; details: Reversible Inhibitor
T1 construct: made in house; host or cells: transformed bacterium (pET vector)
T1 sequence (P29466 120-297 limits assumed): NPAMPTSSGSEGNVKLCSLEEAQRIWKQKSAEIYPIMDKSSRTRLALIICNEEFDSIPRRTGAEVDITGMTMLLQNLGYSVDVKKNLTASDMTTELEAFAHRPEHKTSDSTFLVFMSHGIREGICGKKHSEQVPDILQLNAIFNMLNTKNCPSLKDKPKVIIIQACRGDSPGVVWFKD
T1 sequence (P29466 317-404 limits assumed): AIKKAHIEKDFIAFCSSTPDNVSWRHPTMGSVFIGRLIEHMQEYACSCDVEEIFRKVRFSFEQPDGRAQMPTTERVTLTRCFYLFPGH
Experimental: In the present experiment recombinant caspases were purified from a transformed bacterium after human caspase genes were cloned into the expression vector pET, and then used in the experiment (Thornberry, N. A. et al. Nature, 1992, 356, 768. Thornberry, N. A. Methods in Enzymology, 1994, 615.).
Enzymatic activity was measured by a known procedure (Walker N. P. C. et al., Cell 1994, 78, 343). Briefly, 10 ng of recombinant protein was mixed with 50 mM Tris(pH 7.0), 1 mM DTT, 0.5 mM EDTA, 10% Glycerol buffer containing 1˜100 μM of enzyme substrate, Ac-YVAD-AMC or Ac-DEVD-AMC and then the changes by isolated AMC at 37° C. were recorded. The inhibitory activity for caspases was calculated from the early enzyme reaction rate by measuring the changes with fluorescence excited at […] and emitted at 460 nm (Range; Ki<100 nM).

[3] = system: caspase-3-like activity (Ac-DEVD-pNA); assay: Caspase-3-like activity in TNFα/ActD-treated primary rat hepatocytes; type: cell-based; details: 100 μM, 8 hrs
Experimental: Primary rat hepatocytes were isolated and purified from male Sprague-Dawley rats using a collagenase digestion method. The hepatocytes were purified over 30% Percoll gradient by centrifugation at 1,000×g for 10 min. at 4° C. […] The cells were plated on collagen-coated tissue culture plates at a density of 2×10^5 cells/well in 12-well plates for cell viability analysis or 5×10^6 cells/100 mm dish for enzyme assays. After 18 hrs preculture, the cells were treated with 2,000 units/ml TNFα and 0.2 μg/ml Actinomycin (ActD). Caspase activity and cell viability was determined by colorimetry using a caspase substrate Ac-DEVD-pNA and crystal violet staining method at 8 hrs and 12 hrs, respectively.

For CC(=O)[C@H](CC(=O)O)NC(=O)C1(COc2ccccc2)CC([C@@H](NC(=O)c2ccc3ccccc3n2)C(C)C)=NO1 (mixture of isomers) [Compound 22, (3S)-3-{3-[(1S)-1-(Quinoline-2-yl-carbonylamino)-2-methyl-propyl]-5-phenoxymethyl-4,5-dihydro-isoxazole-5-carbonylamino}-4-keto-pentanoic Acid], the “cell viability (control without Fas antibody = 100%)” value [1] was 78.29%, the viability at 0.4 µM [1] was 14.4% and the viability at 2 µM [1] was 18.3%. It also gave a viability at 10 µM [1] of 35.4% and a viability at 50 µM [1] of 78%.

CC1(C(=O)N[C@@H](CC(=O)O)C(=O)COc2ccccc2)CC([C@H](CCC(=O)O)NC(=O)CCC(=O)O)=NO1 (mixture of isomers) [Compound 46, (3S)-3-{3-[(1S)-1-(Succinoylamino)-3-carboxy-propyl]-5-methyl-4,5-dihydro-isoxazole-5-carbonylamino}-4-keto-5-phenoxy-pentanoic Acid] showed a Ki [2] of 29.1 nM.

Compound CC(C)[C@H](NC(=O)CCC(=O)O)C1=NOC(C)(C(=O)N[C@@H](CC(=O)O)C(=O)COc2ccccc2)C1 (mixture of isomers) [Compound 47, (3S)-3-{3-[2-Methyl-(1S)-1-(succinoylamino)-propyl]-5-methyl-4,5-dihydro-isoxazole-5-carbonylamino}-4-keto-5-phenoxy-pentanoic Acid] has a Ki [2] of 177 nM.

In the case of CCCC1(C(=O)N[C@@H](CC(=O)O)C(=O)COc2ccccc2)CC([C@@H](NC(=O)CCC(=O)O)C(C)C)=NO1 (mixture of isomers) [Compound 83, (3S)-3-{3-[2-Methyl-(1S)-1-(succinoylamino)-propyl]-5-propyl-4,5-dihydro-isoxazole-5-carbonylamino}-4-keto-5-phenoxy-pentanoic Acid], the Ki [2] is reported as 969 nM.

CC(C)[C@H](NC(=O)CCC(=O)O)C1=NOC(C)(C(=O)N[C@@H](CC(=O)O)C(=O)COc2ccc3ccccc3c2)C1 (single isomer, unassigned) [Compound 81] was tested, and the Ki [2] was 26900 nM.

With CC(C)[C@H](NC(=O)CCC(=O)O)C1=NOC(C)(C(=O)N[C@@H](CC(=O)O)C(=O)COc2ccc3ccccc3c2)C1 (single isomer, unassigned) [Compound 82] the Ki [2] was 530 nM.

With CC(=O)N[C@@H](CC(=O)O)C(=O)N[C@@H](CCC(=O)O)C(=O)N[C@H](C(=O)N[C@H](C=O)CC(=O)O)C(C)C [Ac-DEVD-CHO] the “caspase-3-like activity increased by TNFα/ActD (FIG. 15A)” value [3] was “not different”.

For CC(C)[C@H](NC(=O)c1ccc2ccccc2c1)C1=NOC(Cc2ccccc2)(C(=O)N[C@@H](CC(=O)O)C(=O)COC(=O)c2c(Cl)cccc2Cl)C1 (stereo partly drawn) [Compound 28, (3S)-3-{3-[(1S)-1-(Naphthalene-2-carbonylamino)-2-methyl-propyl]-5-phenylmethyl-4,5-dihydro-isoxazole-5-carbonylamino}-4-keto-5-(2,6-dichlorobenzoyloxy)-pentanoic Acid], the “cell viability (control without Fas antibody = 100%)” value [1] was 90.39%, the viability at 0.4 µM [1] was 14.7% and the viability at 2 µM [1] was 17.3%. For the same compound, the viability at 10 µM [1] was 82.4% and the viability at 50 µM [1] was 90%.

With CC(C)[C@H](NC(=O)c1ccc2ccccc2c1)C1=NOC(C(=O)N[C@@H](CC(=O)O)C(=O)COc2ccc3ccccc3c2)C1 (stereo partly drawn) [Compound 29, (3S)-3-{3-[(1S)-1-(Naphthalene-2-carbonylamino)-2-methyl-propyl]-4,5-dihydro-isoxazole-5-carbonylamino}-4-keto-5-(2-naphthyloxy)-pentanoic Acid] the Ki [2] was 0.324 nM.

CC(C)[C@H](NC(=O)c1ccc2ccccc2c1)C1=NOC(C(=O)N[C@@H](CC(=O)O)C(=O)COc2ccccc2)C1 (stereo partly drawn) [Compound 30, (3S)-3-{3-[2-Methyl-(1S)-1-(2-naphthalenecarbonylamino)-propyl]-4,5-dihydro-isoxazole-5-carbonylamino}-4-keto-5-phenoxy-pentanoic Acid] was tested, and the Ki [2] was 19.1 nM.

With CC(C)[C@H](NC(=O)c1cccc2ccccc12)C1=NOC(Cc2ccccc2)(C(=O)N[C@@H](CC(=O)O)C(=O)CN2CCCCC2)C1 (stereo partly drawn) [Compound 48, (3S)-3-{3-[2-Methyl-(1S)-1-(1-naphtalenycarbonylamino)-propyl]-5-phenylmethyl-4,5-dihydro-isoxazole-5-carbonylamino}-4-keto-5-(1-piperidinyl)-pentanoic Acid] the Ki [2] was 1.51 nM.

CC(C)[C@H](NC(=O)CCC(=O)O)C1=NOC(C)(C(=O)N[C@@H](CC(=O)O)C(=O)CN2CCCC2)C1 (stereo partly drawn) [Compound 78, (3S)-3-{3-[2-methyl-(1S)-1-(succinoylamino)-propyl]-5-methyl-4,5-dihydro-isoxazole-5-cabonylamino}-4-keto-5-(N-pyrrolidine)-pentanoic acid] showed a Ki [2] of 63900 nM.
